Results reported in patent US10413612B2, “Method of treating cancer with a biomaterial and a toll-like receptor agonist” (Dana-Farber Cancer Institute, Inc., priority 2016, dated 2019).

Assays:
[1] = In vitro release study of payloads from hydrogel; type: physicochemical; details: sink conditions, PBS or media
Description: To determine the release kinetics of each payload from the hydrogel, a hydrogel loaded with fluorescently tagged anti-PD-1, fluorescently tagged IL-15sa, lenalidomide, celecoxib, fluorescently tagged 2′3′-cGAMP, or R848 was immersed in 3 mL pH 7.4 phosphate buffered saline (PBS). At each time point, 1 mL of media was taken out and the same amount of fresh buffer was added back. The amount of payload that had been released was then measured using a fluorescence plate reader or via HPLC.
Hydrogels were prepared according to the general procedure in Example 1. They contained either one or all of the payloads indicated. Fluorescent dyes were conjugated to the proteins to facilitate the measurement of protein release kinetics. The hydrogels were immersed in 3 mL of buffer (either PBS only, PBS with Tween80 (0.2% v/v), or RPMI with 10% FBS) and incubated at 37° C. with stirring.
At the indicated sampling time points, 1 mL of buffer was recovered for measurement and was replaced by an equivalent volume of fresh buffer. The aliquots were measured using a fluorescence plate reader to determine protein concentration. Aliquots were also assessed by HPLC to determine small molecule concentration.

[2] = In vivo release study (fluorescence IVIS imaging); parameters: species or system non-tumor-bearing mice; details: each time point: first 24 hours (2′3′-cGAMP), first week (IL-15sa)
Source text: To evaluate the in vivo release profiles of Cy7 carboxylic acid (a model compound for R848), anti-PD-1, IL-15sa, and 2′3′-cGAMP, hydrogels containing the fluorophore or one of the fluorescently labeled payloads were surgically implanted into non-tumor-bearing mice.
The loading and release properties of the hydrogel were examined in additional experiments. […] It was then confirmed that the hydrogel extends the release of the small molecules and biologics in vivo. Cy7 carboxylic acid (Cy7-CA) was used as a model small molecule payload, as its physical properties are very similar to those of resiquimod (R848). Cy7-CA was administered to non-tumor-bearing mice, either in solution or loaded in a scaffold placed by the fourth mammary fat pad. The mice were assessed by fluorescence IVIS imaging (FIG. 37B), and the data were quantified (FIG. 37C). Whereas a loss of ˜60% of the signal was detected within two hours of administration of the fluorophore in solution, this amount of signal decay required 24 hours for the fluorophore loaded in the hydrogel. Over this time course, there was a […] for the latter group, on average.
To confirm that the hydrogel sustains the release of the small molecule and biologics in vivo, fluorescently labeled versions of 2 ? […]

[3] = tested on: 4T1-Luc2 syngeneic breast cancer cells; details: hydrogel with IL-15sa and anti-PD-1 (devices 1, 14-16)
Description: Seven-week-old female Balb/c mice were inoculated orthotopically with 100,000 4T1-Luc2 syngeneic breast cancer cells (into the fourth mammary fat pad). After 10 days, the mice were anesthetized, tumors were surgically resected, and compositions were placed in the resection site. […] The order of surgeries avoided systematic error by dividing up the groups. Standard follow-up care (wound clips, analgesic) was provided.
For the metastatic breast cancer model, 10^5 4T1-Luc2 or 4T1 cells (in 30 μl DPBS) were inoculated orthotopically into the fourth mammary pad of mice to generate a local tumor mass. Cells were injected without any incision to expose the fat pad. Mice were randomly assigned to treatment groups, and surgery was performed 10 days after tumor inoculation. For the metastatic melanoma and lung cancer models, 10^6B16-BL6 or 5×10^5 LLC cells (in 100 μl DPBS) were inoculated subcutaneously in mice to generate a local tumor mass. Mice were randomly assigned to treatment groups, and surgery was performed when tumor volumes reached ˜600 mm^3. While mice were kept under anesthesia at 2% isoflurane, the tumor was resected, and the hydrogel was placed in the site of the resultant cavity at the time of surgery. The wound was closed with medical clips. Control experiments were performed in which therapy was administered in solution at the site of surgery, intraperitoneally, or intravenously. For tumor re-challenge experiments, 10^4 4T1-Luc2 cells were inoculated in the contralateral fourth mammary fat pad. The surgeries were performed independently at least three times, and the surgeon was often blinded.
After surgery, mice were inspected weekly for tumor recurrence and distal metastasis by bioluminescence imaging (BLI). To this end, 10 min after intraperitoneal injection of D-luciferin (150 mg/kg), a substrate of Luc2, the mice were anesthetized with 2% isoflurane and imaged using an IVIS Spectrum In Vivo Imaging System (Perkin Elmer).
A series of compositions described above in Table 2 were evaluated in viva. In each group of evaluations, seven-week-old female Balb/c mice were inoculated orthotopically with 100,000 4T1-Luc2 syngeneic breast cancer cells (into the fourth mammary fat pad). After 10 days, mice were anesthetized, tumors were surgically resected, and the composition was placed in the resection site. Tumor relapse and metastasis were monitored via imaging over the course of 6 weeks.
Female BALB/cJ mice were inoculated orthotopically with 4T1-Luc2 breast cancer cells in their fourth mammary fat pad. Nine days later, the mice were imaged by bioluminescent IVIS imaging to confirm that the size of the tumors was consistent across animals to enable randomization into groups. On day 10 post-tumor inoculation, tumors (˜100 mm^3) were resected, and device 1 was placed in the tumor resection site. Controls included no treatment (sham), empty hydrogel (device 8/hydrogel 4), or delivery of the triple combination in solution (S+I+P)—via intraperitoneal injection, intravenous injection, or local administration.

For 2′3′-cGAMP, the “in vitro release kinetics (time scale)” value [1] was “hours for the small molecule”, the “percentage remaining locally, hydrogel relative to free compound” value [2] was “nearly twice” and the “survival benefit as innate immune activator component” value [3] was “conferred greater survival benefit than the Toll-like receptor (TLR) 7/8 agonist R848”.
